The values below come from patent US9873709B2 (priority 2013, dated 2018).

The structures appear in SMILES notation.

For the test, the system named is JAK1-dependent STAT6 phosphorylation downstream of IL-13 stimulation in TF-1 human erythroleukemia cells. Kind of test: cells. Particulars: TF-1, read-out: IL-13-pSTAT6 IC50.
For the molecule `O=C(CCC(F)(F)F)N1CC=C(c2cccn3nc(Nc4ccc(C(=O)N5CCCCC56CCCNC6)cc4)nc23)CC1` (centres unmarked) [Example 2-34, 1-[4-[2-[4-(1,8-diazaspiro[5.5]undecane-1-carbonyl)anilino]-[1,2,4]triazolo[1,5-a]pyridin-8-yl]-3,6-dihydro-2H-pyridin-1-yl]-4,4,4-trifluoro-butan-1-one], the concentration for half-maximal inhibition (IC50) came to 352 nM.

Take `O=C(CCC(F)(F)F)N1CC=C(c2cccn3nc(Nc4ccc(C(=O)N5CC6(CCNC6)C5)cc4)nc23)CC1` [Example 2-35, 1-[4-[2-[4-(2,7-diazaspiro[3.4]octane-2-carbonyl)anilino]-[1,2,4]triazolo[1,5-a]pyridin-8-yl]-3,6-dihydro-2H-pyridin-1-yl]-4,4,4-trifluoro-butan-1-one]: the IC50 was 95 nM.

`O=C(CCC(F)(F)F)N1CC=C(c2cccn3nc(Nc4ccc(C(=O)N5CC6CNCC(C5)O6)cc4)nc23)CC1` [Example 2-37, 4,4,4-trifluoro-1-[4-[2-[4-(9-oxa-3,7-diazabicyclo[3.3.1]nonane-3-carbonyl)anilino]-[1,2,4]triazolo[1,5-a]pyridin-8-yl]-3,6-dihydro-2H-pyridin-1-yl]butan-1-one]: the IC50 was determined as 85.4 nM.

As to `CCN1CCC(CN(C)C(=O)c2ccc(Nc3nc4c(C5=CCN(C(=O)CCC(F)(F)F)CC5)cccn4n3)cc2)C1` (centres unmarked) [Example 2-39, N-[(1-ethylpyrrolidin-3-yl)methyl]-N-methyl-4-[[8-[1-(4,4,4-trifluorobutanoyl)-3,6-dihydro-2H-pyridin-4-yl]-[1,2,4]triazolo[1,5-a]pyridin-2-yl]amino]benzamide], the IC50 was found to be 34.7 nM.

Turning to `Cc1ccnc(CNC(=O)c2ccc(Nc3nc4c(C5=CCN(C(=O)CCC(F)(F)F)CC5)cccn4n3)cc2)c1` [Example 2-41, N-[(4-methyl-2-pyridyl)methyl]-4-[[8-[1-(4,4,4-trifluorobutanoyl)-3,6-dihydro-2H-pyridin-4-yl]-[1,2,4]triazolo[1,5-a]pyridin-2-yl]amino]benzamide], the half-inhibitory concentration (IC50) was 5.2 nM.

With `Cc1ncccc1CNC(=O)c1ccc(Nc2nc3c(C4=CCN(C(=O)CCC(F)(F)F)CC4)cccn3n2)cc1` [Example 2-42, N-[(2-methyl-3-pyridyl)methyl]-4-[[8-[1-(4,4,4-trifluorobutanoyl)-3,6-dihydro-2H-pyridin-4-yl]-[1,2,4]triazolo[1,5-a]pyridin-2-yl]amino]benzamide], the IC50 was found to be 4.7 nM.

For the molecule `CC(CC(=O)N1CC=C(c2cccn3nc(Nc4ccc(C(=O)N(C)C5CCN(C)CC5)cc4)nc23)CC1)C(F)(F)F` (centres unmarked) [Example 2-43, N-methyl-N-(1-methyl-4-piperidyl)-4-[[8-[1-(4,4,4-trifluoro-3-methyl-butanoyl)-3,6-dihydro-2H-pyridin-4-yl]-[1,2,4]triazolo[1,5-a]pyridin-2-yl]amino]benzamide], the IC50 came to 27.8 nM.

For the molecule `O=C(CCC(F)(F)F)N1CC=C(c2cccn3nc(Nc4ccc(C(=O)N5CCC(N6CCOCC6)C5)cc4)nc23)CC1` (centres unmarked) [Example 2-45, 4,4,4-trifluoro-1-[4-[2-[4-(3-morpholinopyrrolidine-1-carbonyl)anilino]-[1,2,4]triazolo[1,5-a]pyridin-8-yl]-3,6-dihydro-2H-pyridin-1-yl]butan-1-one], the IC50 came out at 9 nM.

Regarding `O=C(CCC(F)(F)F)N1CC=C(c2cccn3nc(Nc4ccc(C(=O)N5CCC(N6CCCC6)CC5)cc4)nc23)CC1` [Example 2-46, 4,4,4-trifluoro-1-[4-[2-[4-(4-pyrrolidin-1-ylpiperidine-1-carbonyl)anilino]-[1,2,4]triazolo[1,5-a]pyridin-8-yl]-3,6-dihydro-2H-pyridin-1-yl]butan-1-one], the IC50 worked out at 20.5 nM.

As for `CC1CCCCN1CCCNC(=O)c1ccc(Nc2nc3c(C4=CCN(C(=O)CCC(F)(F)F)CC4)cccn3n2)cc1` (centres unmarked) [Example 2-47, N-[3-(2-methyl-1-piperidyl)propyl]-4-[[8-[1-(4,4,4-trifluorobutanoyl)-3,6-dihydro-2H-pyridin-4-yl]-[1,2,4]triazolo[1,5-a]pyridin-2-yl]amino]benzamide], the IC50 worked out at 15.7 nM.

For `CN1CCCC1CCNC(=O)c1ccc(Nc2nc3c(C4=CCN(C(=O)CCC(F)(F)F)CC4)cccn3n2)cc1` (centres unmarked) [Example 2-48, N-[2-(1-methylpyrrolidin-2-yl)ethyl]-4-[[8-[1-(4,4,4-trifluorobutanoyl)-3,6-dihydro-2H-pyridin-4-yl]-[1,2,4]triazolo[1,5-a]pyridin-2-yl]amino]benzamide], the IC50 amounted to 33.5 nM.

With `Cc1ccc(C2CCCN(C(=O)c3ccc(Nc4nc5c(C6=CCN(C(=O)CCC(F)(F)F)CC6)cccn5n4)cc3)C2)nc1` (centres unmarked) [Example 2-50, 4,4,4-tri fluoro-1-[4-[2-[4-[3-(5-methyl-2-pyridyl)piperidine-1-carbonyl]anilino]-[1,2,4]triazolo[1,5-a]pyridin-8-yl]-3,6-dihydro-2H-pyridin-1-yl]butan-1-one], the IC50 turned out to be 65.1 nM.

Turning to `CN(C)c1ccc(C2CCCN(C(=O)c3ccc(Nc4nc5c(C6=CCN(C(=O)CCC(F)(F)F)CC6)cccn5n4)cc3)C2)nc1` (centres unmarked) [Example 2-51, 1-[4-[2-[4-[3-[5-(dimethylamino)-2-pyridyl]piperidine-1-carbonyl]anilino]-[1,2,4]triazolo[1,5-a]pyridin-8-yl]-3,6-dihydro-2H-pyridin-1-yl]-4,4,4-trifluoro-butan-1-one], the IC50 was found to be 70.2 nM.

With `CN1CCC(N(C)C(=O)c2ccc(Nc3nc4c(C5=CCN(CC#N)CC5)cccn4n3)cc2)CC1` [Example 2-52, 4-[[8-[1-(cyanomethyl)-3,6-dihydro-2H-pyridin-4-yl]-[1,2,4]triazolo[1,5-a]pyridin-2-yl]amino]-N-methyl-N-(1-methyl-4-piperidyl)benzamide], the IC50 is 60 nM.

As for `CN1CCC(N(C)C(=O)c2ccc(Nc3nc4c(C5=CCN(C(=O)CC(C)(C)C)CC5)cccn4n3)cc2)CC1` [Example 2-54, 4-[[8-[1-(3,3-dimethylbutanoyl)-3,6-dihydro-2H-pyridin-4-yl]-[1,2,4]triazolo[1,5-a]pyridin-2-yl]amino]-N-methyl-N-(1-methyl-4-piperidyl)benzamide], the IC50 was 16.3 nM.

In the case of `CCOC(=O)N1CC=C(c2cccn3nc(Nc4ccc(C(=O)N5CC(NC)C5)cc4)nc23)CC1` [Example 2-55, Ethyl 4-[2-[4-[3-(methylamino)azetidine-1-carbonyl]anilino]-[1,2,4]triazolo[1,5-a]pyridin-8-yl]-3,6-dihydro-2H-pyridine-1-carboxylate], the IC50 came out at 10 nM.

`CCOC(=O)N1CC=C(c2cccn3nc(Nc4ccc(C(=O)NC5CCN(C)CC5)cc4)nc23)CC1` [Example 2-60, ethyl 4-[2-[4-[(1-methyl-4-piperidyl)carbamoyl]anilino]-[1,2,4]triazolo[1,5-a]pyridin-8-yl]-3,6-dihydro-2H-pyridine-1-carboxylate]: the IC50 was 20.4 nM.

Consider `CCOC(=O)N1CC=C(c2cccn3nc(Nc4ccc(C(=O)N5CCC(c6ccncc6)C5)cc4)nc23)CC1` (centres unmarked) [Example 2-62, ethyl 4-[2-[4-[3-(4-pyridyl)pyrrolidine-1-carbonyl]anilino]-[1,2,4]triazolo[1,5-a]pyridin-8-yl]-3,6-dihydro-2H-pyridine-1-carboxylate], for which the IC50 was found to be 30 nM.

For the molecule `CCOC(=O)N1CC=C(c2cccn3nc(Nc4ccc(C(=O)N5CCCC5c5ccc(C)cn5)cc4)nc23)CC1` (centres unmarked) [Example 2-67, ethyl 4-[2-[4-[2-(5-methyl-2-pyridyl)pyrrolidine-1-carbonyl]anilino]-[1,2,4]triazolo[1,5-a]pyridin-8-yl]-3,6-dihydro-2H-pyridine-1-carboxylate], the IC50 amounted to 40.9 nM.

On to `CCOC(=O)N1CC=C(c2cccn3nc(Nc4ccc(C(=O)N5CC6(CCN(C)C6)C5)cc4)nc23)CC1` [Example 2-68, ethyl 4-[2-[4-(7-methyl-2,7-diazaspiro[3.4]octane-2-carbonyl)anilino]-[1,2,4]triazolo[1,5-a]pyridin-8-yl]-3,6-dihydro-2H-pyridine-1-carboxylate], for which the IC50 was determined as 11.9 nM.

Regarding `CCOC(=O)N1CC=C(c2cccn3nc(Nc4ccc(C(=O)N5Cc6cccnc6C5)cc4)nc23)CC1` [Example 2-70, ethyl 4-[2-[4-(5,7-dihydropyrrolo[3,4-b]pyridine-6-carbonyl)anilino]-[1,2,4]triazolo[1,5-a]pyridin-8-yl]-3,6-dihydro-2H-pyridine-1-carboxylate], the IC50 came out at 29.8 nM.

As to `CCOC(=O)N1CC=C(c2cccn3nc(Nc4ccc(C(=O)N5CC(N)C5)cc4)nc23)CC1` [Example 2-74, ethyl 4-[2-[4-(3-aminoazetidine-1-carbonyl)anilino]-[1,2,4]triazolo[1,5-a]pyridin-8-yl]-3,6-dihydro-2H-pyridine-1-carboxylate], the IC50 was found to be 18.9 nM.

On to `CCOC(=O)N1CC=C(c2cccn3nc(Nc4ccc(C(=O)N5CC6(CNC6)C5)cc4)nc23)CC1` [Example 2-77, ethyl 4-[2-[4-(2,6-diazaspiro[3.3]heptane-2-carbonyl)anilino]-[1,2,4]triazolo[1,5-a]pyridin-8-yl]-3,6-dihydro-2H-pyridine-1-carboxylate], for which the IC50 came to 134 nM.

`CCOC(=O)N1CC=C(c2cccn3nc(Nc4ccc(C(=O)N5CCC6(CCNC6)C5)cc4)nc23)CC1` (centres unmarked) [Example 2-78, ethyl 4-[2-[4-(2,7-diazaspiro[4.4]nonane-2-carbonyl)anilino]-[1,2,4]triazolo[1,5-a]pyridin-8-yl]-3,6-dihydro-2H-pyridine-1-carboxylate]: the IC50 worked out at 360 nM.

As to `NCC1CCCN1C(=O)c1ccc(Nc2nc3c(C4=CCN(C(=O)CCC(F)(F)F)CC4)cccn3n2)cc1` (centres unmarked) [Example 2-80, 1-[4-[2-[4-[2-(aminomethyl)pyrrolidine-1-carbonyl]anilino]-[1,2,4]triazolo[1,5-a]pyridin-8-yl]-3,6-dihydro-2H-pyridin-1-yl]-4,4,4-trifluoro-butan-1-one], the IC50 worked out at 79.4 nM.

For the molecule `O=C(CCC(F)(F)F)N1CC=C(c2cccn3nc(Nc4ccc(C(=O)N5CC6(CCNCC6)C5)cc4)nc23)CC1` [Example 2-81, 1-[4-[2-[4-(2,7-diazaspiro[3.5]nonane-2-carbonyl)anilino]-[1,2,4]triazolo[1,5-a]pyridin-8-yl]-3,6-dihydro-2H-pyridin-1-yl]-4,4,4-trifluoro-butan-1-one], the IC50 was determined as 60 nM.
